The values below are quoted from earlier work in patent US11304923B2, “Use of a benzoate containing composition to treat glycine encephalopathy” (Rush University Medical Center, priority 2017, dated 2022).

SMILES strings stand for the structures.

Data set [1] relates to disease process of multiple sclerosis (MS). The conditions noted are these: mice.
The test system of the next data set is neurotrophin-3 (NT-3). The conditions noted are these: brain cells.
The test system of data set [2] is brain-derived neurotrophic factor (BDNF). The conditions noted are these: brain cells.
In the next data set the test system is DJ-1. The conditions noted are these: astrocytes and neurons.

Turning to `O=C([O-])c1ccccc1.[Na+]` [sodium benzoate], the “disease process of multiple sclerosis (MS)” value in data set [1] is “suppresses”. For the same compound, in the data set on neurotrophin-3 (NT-3), the “production of NT-3” value was “increases”. In addition, the “production of BDNF” value in data set [2] is listed as “increases”. Besides, the DJ-1 protein level entry in the data set with DJ-1 was “up-regulates”.
